{"source": "paper PMC8795149", "about": "“Characterization of a novel non-steroidal glucocorticoid receptor agonist optimized for topical treatment” (Scientific Reports, 2022)", "key": {"[1]": {"assay": "Stability in whole blood (minipig)", "assay_type": "in vitro ADME", "details": "0.1 µM, 37 °C", "protocol": "(§1) Compounds were incubated in diluted fresh rat, dog, minipig or human whole blood (heparin stabilized, 50% blood and 50% phosphate buffer with 1% bovine serum albumin) for 120 min at 0.1 µM, at 37 °C and the half-lives were determined. Samples were taken at 0, 15, 30, 60 and 120 min, and reactions were terminated by addition of acetonitrile containing analytical internal standard (IS). Test compound depletion was determined using time-of-flight mass spectrometry in positive ion mode (TOF–MS; AB Sciex API5600). Elimination rate constants (k) were calculated from peak areas and the half-lives was determined (t½ = ln2/k)."}, "[2]": {"target": "T1, recombinant human full-length GR (Homo sapiens, UniProt P04150)", "T1 construct": "4 nM recombinant human full-length GR (Thermo Fisher); purchased Thermo Fisher", "T1 sequence (P04150 1-777)": "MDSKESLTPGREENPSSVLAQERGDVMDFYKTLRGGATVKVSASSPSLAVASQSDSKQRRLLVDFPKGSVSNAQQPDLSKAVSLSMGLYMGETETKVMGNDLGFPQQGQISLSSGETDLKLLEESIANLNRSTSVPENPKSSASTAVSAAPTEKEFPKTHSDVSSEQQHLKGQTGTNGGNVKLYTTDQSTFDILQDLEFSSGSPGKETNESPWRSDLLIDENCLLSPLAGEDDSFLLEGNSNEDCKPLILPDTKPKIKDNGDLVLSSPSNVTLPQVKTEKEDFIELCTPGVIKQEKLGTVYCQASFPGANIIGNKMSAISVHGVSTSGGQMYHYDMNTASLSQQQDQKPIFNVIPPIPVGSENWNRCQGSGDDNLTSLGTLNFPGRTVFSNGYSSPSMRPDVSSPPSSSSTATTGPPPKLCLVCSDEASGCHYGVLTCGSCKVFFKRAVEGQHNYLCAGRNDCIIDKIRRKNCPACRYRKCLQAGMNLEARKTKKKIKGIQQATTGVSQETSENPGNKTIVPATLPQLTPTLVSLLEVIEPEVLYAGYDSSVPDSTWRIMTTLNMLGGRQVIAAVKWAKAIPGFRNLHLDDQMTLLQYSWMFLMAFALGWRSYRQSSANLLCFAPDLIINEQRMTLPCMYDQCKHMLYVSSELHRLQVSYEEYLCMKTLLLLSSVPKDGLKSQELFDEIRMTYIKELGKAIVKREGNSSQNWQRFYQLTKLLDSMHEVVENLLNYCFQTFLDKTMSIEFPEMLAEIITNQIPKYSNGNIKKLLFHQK", "assay": "GR binding assay (fluorescence polarization)", "details": "Fluormone GS1", "protocol": "Binding of GR agonists to human GR was evaluated in a fluorescence polarization assay. 2.5 nM Fluormone GS1 (Thermo Fisher) and 4 nM recombinant human full-length GR (Thermo Fisher) were incubated in the presence of individual test and control compounds. Changes in polarization values were used to determine the relative affinity of test compounds for the GR."}, "[3]": {"assay": "Hepatocyte stability (human)", "assay_type": "in vitro ADME", "details": "predicted hepatic clearance, well stirred model", "protocol": "(§2) Compounds (1.0 µM) were incubated in duplicates with rat, dog, minipig or human hepatocytes (1.0 million cells/mL) in phosphate buffer, in 96-well plates for 120 min (37 °C). Reactions were stopped by addition of cold acetonitrile, at 0, 10, 30, 60, and 120 min, and dispensed into cold acetonitrile to stop the reactions. Plates were centrifuged for 30 min and samples were analysed using liquid chromatography coupled to a time-of-flight mass spectrometer. Compound depletion over time was used to estimate the elimination rate constant, from which the apparent intrinsic clearance (CLapp), and half-life (t½), were calculated."}, "[4]": {"assay": "Hepatocyte stability (dog)", "assay_type": "in vitro ADME", "details": "predicted hepatic clearance, well stirred model", "protocol": "as §2"}, "[5]": {"assay": "Stability in whole blood (rat)", "assay_type": "in vitro ADME", "details": "0.1 µM, 37 °C", "protocol": "as §1"}, "[6]": {"assay": "TPA mouse model, blood concentration after topical dose", "assay_type": "in vivo", "details": "blood concentrations at 2 h after the last topical dose", "protocol": "Treatments were performed by topical application of either vehicle (90% acetone, 10% transcutol), Treatments were applied twice daily on days 8, 9, 10, and once on day 11 (20–10 μL to each side of ear) with at least 5 h between the first and second treatment. TPA challenge on days 8 and 10 was performed at least 1 h after the first treatment. On day 11, animals were sacrificed 2 h after the last dosing. Blood was sampled by cardiac puncture from animals anaesthetized with isoflurane. Thereafter, ear biopsies were taken with a biopsy punch (8 mm diameter), weighed and stored at – 80 °C. Plasma osteocalcin levels were analyzed by EIA (rat-MID, IDS, UK). Effective inhibitory doses (ID50) were determined from a sigmoid I(max) model in Phoenix64, Pharsight, Certara. Therapeutic Index (TI) was calculated either as ID50 for spleen weight reduction or ID50 for blood osteocalcin concentrations, divided by ID50 for ear weight reduction."}, "[7]": {"assay": "Hepatocyte stability (rat)", "assay_type": "in vitro ADME", "details": "predicted hepatic clearance, well stirred model", "protocol": "as §2"}, "[8]": {"assay": "Predicted clearance and half-life in man by allometric scaling of clearance in dogs", "design": "species or system human", "text": "To evaluate allometric scaling, actual clearance in dog and man were extracted from the literature for 6 ester drugs[27]–[38]."}, "[9]": {"target": "T2, human Mineralocorticoid Receptor (Homo sapiens, UniProt P08235)", "T2 construct": "host or cells: HEK293 (DSMZ ACC 305)", "T2 sequence (P08235 726-964 limits assumed)": "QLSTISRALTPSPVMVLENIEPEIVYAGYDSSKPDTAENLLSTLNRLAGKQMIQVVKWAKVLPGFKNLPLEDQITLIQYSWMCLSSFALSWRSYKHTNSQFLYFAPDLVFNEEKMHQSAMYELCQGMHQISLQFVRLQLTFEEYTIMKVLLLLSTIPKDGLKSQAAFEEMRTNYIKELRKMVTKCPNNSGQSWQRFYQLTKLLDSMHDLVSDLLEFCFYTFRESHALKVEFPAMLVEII", "assay": "MR antagonist assay, MR reporter assay", "assay_type": "cell-based", "protocol": "Assays were performed at Indigo Biosciences according to standard protocols. In brief, MR-luciferase reporter cells were incubated with medium containing charcoal-stripped fetal bovine serum and incubated with test and reference compounds for 24 h before measuring luminescence. Data were fitted by the means of four parameter logistic regression.\nLEO 134310 and LEO 134988 were tested in the human Mineralocorticoid Receptor in cellular GAL4 reporter gene assays. All assays were done in HEK293 cells (DSMZ ACC 305). The plasmids used in Phenex’ GAL4 assay system are derivatives of Stratagene’s M2H plasmids: the reporter plasmid pFR-Luc (contains a synthetic promoter with five tandem repeats of the yeast GAL4 binding sites that control expression of the Photinus pyralis (American firefly) luciferase gene), and pCMV-BD (for fusions of nuclear receptor ligand binding domains to the DNA-binding domain of the yeast protein GAL4). In order to improve experimental accuracy, a second reporter - Renilla reniformis luciferase, driven by a constitutive promoter - was included as internal control. Using the control reporter (pRL-CMV) allows correcting for variations in experimental handling e.g. transfection efficacy, cell viability, pipetting errors, cell lysis efficiency and assay efficiency. The compounds were tested in 9 concentrations in triplicates."}}}
{"smiles": "C[C@H](NC(=O)[C@H]1CCCO1)[C@H](Oc1ccc(C(=O)O[C@H]2CCCN(C(=O)[C@H]3COC(=O)C3)C2)cc1)c1ccc(C2CC2)cc1", "note": "[LEO 134310]", "values": [{"measurement": "In vitro (blood) half-life", "setting": "[1]", "value": "3.8 (n = 1) min"}, {"measurement": "EC50", "setting": "[2]", "value": 14, "unit": "nM"}, {"measurement": "In vitro (hepatocytes) CLH", "setting": "[3]", "value": "> 18 (n = 1) mL/min/kg"}, {"measurement": "In vitro (hepatocytes) CLH", "setting": "[4]", "value": "> 30 (n = 1) mL/min/kg"}, {"measurement": "In vitro (blood) half-life", "setting": "[5]", "value": "2.2 (2.1, 2.2) (n = 2) min"}, {"measurement": "Higher dose needed to achieve systemic exposure comparable to BMV", "setting": "[6]", "value": 800, "unit": "fold"}, {"measurement": "Higher dose needed to achieve systemic exposure comparable to CP", "setting": "[6]", "value": 200, "unit": "fold"}, {"measurement": "In vitro (hepatocytes) CLH", "setting": "[7]", "value": "57 (n = 1) mL/min/kg"}, {"measurement": "Predicted clearance in man", "setting": "[8]; allometric scaling of clearance in dogs, scaling factor 0.75", "value": 300, "unit": "mL/min/kg"}, {"measurement": "Predicted half-life in man", "setting": "[8]; corresponding to predicted clearance", "value": "< 5", "unit": "min"}, {"measurement": "Antagonist activity on MR", "setting": "[9]", "value": "no antagonist activity on MR"}]}
